Experimental data taken from patent US20100273868A1, “R-Zileuton for Use in Conditions Associated with Increased 5-Lipoxygenase and/or Leukotriene Activity (EG Asthma)” (Cornerstone Therapeutics Inc., priority 2007, published 2010).

Legend:
[1] = tested on: infiltration of inflammatory cells to the airways; assay: Mouse model of asthma, ovalbumin challenge, BAL 8 h after final challenge (Example 5); format: in vivo, BALB/c mice; conditions: for inhibition of eosinophils in BAL fluid / inhibition of neutrophil infiltration in BAL fluid / inhibition of the increase in total cellularity of BAL fluid: 4 mg/kg; for efficacy compared with racemic zileuton or S(−) zileuton: 2 or 4 mg/kg oral once a day
Experimental: Male BALB/c mice were obtained from Taconic Labs (Taconic, N.Y.) and maintained on an OVA-free (ovalbumin-free) diet. After equilibration of at least 5 days, animals were sensitized to OVA and then challenged by the following procedure. On days 1 and 14, sensitization was performed by intraperitoneal (ip) injections of 10 μg OVA emulsified in 2 mg Al(OH)3 (aluminum hydroxide (Aldrox)) in a volume of […]. On days 29, 30 and 31, allergen challenge was performed via intranasal instillation of 20 μL (10 μL/nare) of OVA (1 mg/mL) under light isoflurane anesthesia.
The background control group received no sensitization and no challenge. The sham control group underwent the OVA sensitization procedure, but was challenged with PBS. The vehicle control group was used to determine the maximal response level achievable.
Animals were given Zileuton (at 2 or 4 mg/kg, by mouth (po), once daily (qd)) or (orally) 30 minutes prior to each ovalbumin challenge. Eight hours after the final ovalbumin challenge, animals were sacrificed and bronchoalveolar lavage (BAL) was performed. A tracheal tube was inserted into the trachea and the lungs were lavaged 2 times with pyrogen-free, sterile, PBS containing 0.01% EDTA and 0.05% BSA (Bovine serum albumin). Lavage fluid, maintained at room temperature, was slowly injected into the lungs; lungs were manually massaged to distribute fluid for 30 seconds, bronchoalveolar lavage fluid (BALF) was slowly withdrawn and salvaged to individually-labeled, sterile, polypropylene tubes. The procedure was repeated 2 times/animal and the lavage fluids were pooled. The magnitude of the infiltration of inflammatory cells to the airways was determined by flow cytometry.

[2] = tested on: LTB4 production in canine whole blood; assay: Ex vivo inhibition of A23187-stimulated LTB4 production in canine whole blood after oral dosing; conditions: Canis lupus familiaris, dogs; for inhibition at 10 mg/kg: 10 mg/kg oral; for inhibition at 5 mg/kg: 5 mg/kg oral
Experimental: To determine the pharmacodynamics of racemic and (R)-zileuton, ex vivo, in fresh canine whole blood, a 0.5 ml aliquot was removed from each pharmacokinetic sample of the study. Each 0.5 ml aliquot of blood was placed into an individually-labeled, 1.5 ml polypropylene tube. Five (5) μl of a 5 mM calcium ionophore A23187 solution (in DMSO) was added to each sample and mixed for 10 seconds on a vortex. Final concentration of A23187 in whole blood was 50 μM (final DMSO concentration was 1%). After mixing, each sample was placed into a 37° C. circulating water bath and allowed to incubate for 30 minutes. […] After incubation, each sample was removed from the water bath and immediately placed onto wet ice for 2 minutes. The samples were removed from the ice after 2 minutes and immediately centrifuged in an Eppendorf Microfuge (VWR Scientific, USA) at 14,000 rpm for 2 minutes at ambient room temperature. After centrifugation, the supernatant (plasma) was collected, diluted into EIA buffer (1M phosphate buffer, pH 7.4) then stored at −80° C. until assay. The level of LTB4 was analyzed by enzyme immunoassay (Cayman Chemical Co., Ann Arbor, Mich.).

[3] = Plasma concentration-time profile (AUC) after oral dosing to dogs; format: in vivo, beagle dogs; conditions: for AUC: beagle, dog, plasma, gelcaps
Experimental: The plasma concentration-time profiles for racemic zileuton and (R)-zileuton were evaluated in beagle dogs dosed orally with either 10 mg/kg racemic zileuton or 5 mg/kg (R)-zileuton in gelcaps. Following oral dosing blood samples were collected from the test animals into sodium-EDTA anticoagulant tubes at selected time points up to 48 hours post-dose, processed into plasma and analysed by an LC-MS/MS method for zileuton concentration. The LC-MS/MS method utilized a 0.1% trifluoroacetic in water and methanol gradient HPLC system (initial 45:55 to 10:90% over 4 minutes with a Zorbax SB-C18 4.6×30 mm column at a flow rate of 1.5 mL/min). The retention time of zileuton was 2.0 minutes. A stable labeled version of zileuton was used to internally standardize the analysis. Mass spectrometer analysis by electrospray ionization of the HPLC eluent was performed in SRM mode (ESI 3.5 kV; tube lens voltage 71.0; capillary offset 40.3; L11-24.3; capillary temperature 350° C.; dwell 100 msec; collision energy 15 eV). Plasma concentrations of zileuton in the test samples were estimated by interpolation of sample peak area/height data from a standard concentration-peak area/height plot. The area under the plasma concentration-time (AUC) was calculated by non-compartmental pharmacokinetic analysis (WinNonlin, Pharsight, Mountain View, Calif.) using the trapezoidal rule.

[4] = tested on: LTB4 production in human whole blood; assay: Human whole blood assay of LTB4 inhibition; format: cell-based; conditions: for IC50: A23187 50 μM
Experimental: The potency of racemic and (R)-zileuton was assessed in fresh human whole blood essentially by the methods of Carter et al., J. Pharm. Exp. Ther. 1991: 256:929. Briefly, 0.5.ml of heparinized (20 USP U/ml) human blood from each donor was incubated with vehicle (DMSO), or various concentrations of racemic zileuton, (R)-zileuton or (S)-zileuton (prepared in DMSO) for fifteen minutes at 37° C. Eicosanoid biosynthesis was initiated by the addition of calcium ionophore A23187 in DMSO to a final concentration of 50 μM (final DMSO concentration of 1%). Samples were incubated for an additional 30 minutes at 37° C. in the presence of A23187. The reaction was terminated by cooling in an ice bath for 2 minutes followed by centrifugation. The plasma was then salvaged to an EIA buffer (1M phosphate buffer, pH 7.4) then stored at −80° C. until assay. The level of LTB4 was analyzed by enzyme immunoassay.

[5] = tested on: cellular infiltration of airways; assay: Murine model of allergic lung inflammation, ovalbumin challenge, BAL 24 h after final challenge (Example 4); format: in vivo, BALB/c mice; conditions: oral
Experimental: Male, BALB/c mice were sensitized intraperitoneally (i.p.) with ovalbumin (10 μg) on days 1 and 14. To provoke an allergic lung inflammatory response, the mice received three intransal (i.n.) challenges with ovalbumin (100 μg) (or saline for sham) on days 29, 30 and 31. After sensitization period, animals were treated orally 30 minutes prior to ovalbumin challenge on days 29, 30 and 31 according to the following regimes: racemic Zileuton (10 mg/kg, four times daily (qid)), Montelukast (0.17 mg/kg, once daily (qd)), Dexamethasone (4 mg/kg, once daily (qd)). Twenty-four hours following the final challenge (n=16 per group, pool of two separate studies), animals were sacrificed and bronchoalveolar lavage (BAL) was performed. Infiltration of airways by inflammatory cells was quantified by cytospin, microscopy and/or flow cytometry. The dose levels and frequencies of zileuton and montelukast were chosen to approximate the human clinical use. Zileuton, Montelukast and Dexamethasone were compared to their respective “qid” and “qd” controls.

CC(c1cc2ccccc2s1)N(O)C(N)=O (racemic) [racemic zileuton, (±)-1-(1-Benzo[b]thien-2-ylethyl)-1-hydroxyurea]
inhibition of eosinophils in BAL fluid ([1]; po, qd, versus vehicle control): 67%
inhibition of neutrophil infiltration in BAL fluid ([1]; po, qd, versus vehicle control): 54%
inhibition of the increase in total cellularity of BAL fluid ([1]; po, qd, versus vehicle control): 66%
inhibition at 10 mg/kg ([2]; 36 hours after administration): ~84%
inhibition at 10 mg/kg ([2]; time points between 30 minutes and 24 hours after administration): 100%
AUC ([3]; 10 mg/kg po): 87000 ng·h/mL
IC50 [4]: 745 nM
% Inhibition Eosinophils ([5]; 10 mg/kg, qid): 99.2 ± 0.02%
% Inhibition Neutrophils ([5]; 10 mg/kg, qid): 87.9 ± 2.3%
% Inhibition Total cells ([5]; 10 mg/kg, qid): 62.2 ± 1.7%

C[C@H](c1cc2ccccc2s1)N(O)C(N)=O [(R)-zileuton]
inhibition of the total cell infiltration ([1]; 2 mg/kg, po, qd, versus vehicle control): 66%
inhibition of eosinophils in BAL fluid ([1]; po, qd, versus vehicle control): 75%
inhibition of neutrophil infiltration in BAL fluid ([1]; po, qd, versus vehicle control): 65%
inhibition of the increase in total cellularity of BAL fluid ([1]; po, qd, versus vehicle control): 85%
efficacy compared with racemic zileuton or S(−) zileuton [1]: significantly greater efficacy than racemic zileuton
efficacy compared with racemic zileuton or S(−) zileuton ([1]; listed as R(+) zileuton): greater efficacy
inhibition at 5 mg/kg ([2]; 36 hours after administration): ~74%
inhibition at 5 mg/kg ([2]; time points between 60 minutes and 24 hours after administration): > 91%
share of the racemic zileuton AUC ([3]; FIG. 1): 58%
AUC ([3]; 5 mg/kg po): 52000 ng·h/mL
S(−) zileuton IC50/R(+) zileuton IC50 ratio [4]: 11.9
IC50 [4]: 399 nM

C[C@@H](c1cc2ccccc2s1)N(O)C(N)=O [(S)-zileuton]
inhibition of eosinophils in BAL fluid ([1]; po, qd, versus vehicle control): 51%
inhibition of neutrophil infiltration in BAL fluid ([1]; po, qd, versus vehicle control): 35%
inhibition of the increase in total cellularity of BAL fluid ([1]; po, qd, versus vehicle control): not significantly effective
IC50 [4]: 4770 nM

C[C@@H]1C[C@H]2[C@@H]3CCC4=CC(=O)C=C[C@]4(C)[C@@]3(F)[C@@H](O)C[C@]2(C)[C@@]1(O)C(=O)CO [Dexamethasone]
% Inhibition Eosinophils ([5]; 4 mg/kg, qd): 99.2 ± 0.02%
% Inhibition Neutrophils ([5]; 4 mg/kg, qd): 90.5 ± 1.1%
% Inhibition Total cells ([5]; 4 mg/kg, qd): 62.5 ± 1.5%

CC(C)(O)c1ccccc1CC[C@@H](SCC1(CC(=O)O)CC1)c1cccc(/C=C/c2ccc3ccc(Cl)cc3n2)c1 [Montelukast]
% Inhibition Eosinophils ([5]; 0.17 mg/kg, qd): 99.2 ± 0.02%
% Inhibition Neutrophils ([5]; 0.17 mg/kg, qd): 23.3 ± 6.6%
% Inhibition Total cells ([5]; 0.17 mg/kg, qd): 53.3 ± 6.5%
